Experimental data: US20210139497A1, “THIENOCYCLIC COMPOUND AND SYNTHESIS METHOD THEREFOR AND APPLICATION THEREOF” (SHANGHAI YUYAO BIOTECH LTD., priority 2017, published 2021)
pIC50: −log10 of the molar value.

How the values were obtained:
[1] = biological target: T1, human PGE2 receptor EP4 subtype (hEP4) (Homo sapiens, UniProt P35408); assay: Calcium flux of human prostaglandin E2 receptor EP4 subtype; assay type: cell-based; conditions: CHO-K1-Gα16 cells overexpressing hEP4, calcium flux activated by prostaglandin E2; read-out: hEP4 Ca^2+ IC50
T1 construct: expressed in transfected cells; host or cells: CHO-K1-Gα16
T1 sequence (P35408 whole entry): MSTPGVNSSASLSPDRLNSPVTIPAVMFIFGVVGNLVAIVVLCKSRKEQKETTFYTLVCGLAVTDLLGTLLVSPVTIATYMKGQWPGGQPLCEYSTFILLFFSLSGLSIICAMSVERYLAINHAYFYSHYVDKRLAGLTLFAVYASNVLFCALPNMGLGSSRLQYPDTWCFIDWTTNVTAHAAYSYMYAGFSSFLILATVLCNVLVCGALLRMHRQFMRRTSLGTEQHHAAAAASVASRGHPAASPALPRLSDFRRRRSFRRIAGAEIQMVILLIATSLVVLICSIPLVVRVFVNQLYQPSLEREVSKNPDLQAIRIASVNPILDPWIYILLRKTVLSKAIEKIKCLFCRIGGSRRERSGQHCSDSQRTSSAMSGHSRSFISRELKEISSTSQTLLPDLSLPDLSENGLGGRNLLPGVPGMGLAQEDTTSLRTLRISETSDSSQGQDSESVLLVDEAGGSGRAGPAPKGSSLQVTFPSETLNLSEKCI
Experimental: (§1) CHO-K1-Gα16 cells at the logarithmic growth phase were transfected with EP4 overexpressing vector by Lipofectamine 2000 and then seeded in a 96-well plate (Falcon, CA) and cultured at 20000 cells per 100 μL culture medium overnight. On the second day, every single well were added with 100 μL calcium 5 detection reagents (Molecular Devices) and incubated in incubator at 37° C., 5% CO2 for 45 minutes. The compounds were diluted in HBSS detection buffer, then added to 96-well plates. After incubated for 20 min at room temperature away from light, certain concentration of prostaglandin E2 was used to activate calcium flux of cells for detection (Flexstation 3, MD, CA).
(§2) Calculate the IC50 of the compounds of the invention in inhibiting the calcium flux of human PGE2 receptor EP4 subtype (hEP4) and mouse PGE2 receptor EP4 subtype (mEP4) (i.e. the concentration of drugs at which the intracellular Ca^2+ flux is inhibited by half after overexpressing hEP4 and mEP4 receptors in CHO-K1-Gα16 cells). The IC50 of the drugs were calculated using GraphPad Prism 5.

[2] = biological target: T2, mouse PGE2 receptor EP4 subtype (mEP4) (Mus musculus, UniProt P32240); assay: Calcium flux of mouse prostaglandin E2 receptor EP4 subtype; assay type: cell-based; conditions: CHO-K1-Gα16 cells overexpressing mEP4, calcium flux activated by prostaglandin E2; read-out: mEP4 Ca^2+ IC50
T2 construct: expressed in transfected cells; host or cells: CHO-K1-Gα16
T2 sequence (P32240 whole entry): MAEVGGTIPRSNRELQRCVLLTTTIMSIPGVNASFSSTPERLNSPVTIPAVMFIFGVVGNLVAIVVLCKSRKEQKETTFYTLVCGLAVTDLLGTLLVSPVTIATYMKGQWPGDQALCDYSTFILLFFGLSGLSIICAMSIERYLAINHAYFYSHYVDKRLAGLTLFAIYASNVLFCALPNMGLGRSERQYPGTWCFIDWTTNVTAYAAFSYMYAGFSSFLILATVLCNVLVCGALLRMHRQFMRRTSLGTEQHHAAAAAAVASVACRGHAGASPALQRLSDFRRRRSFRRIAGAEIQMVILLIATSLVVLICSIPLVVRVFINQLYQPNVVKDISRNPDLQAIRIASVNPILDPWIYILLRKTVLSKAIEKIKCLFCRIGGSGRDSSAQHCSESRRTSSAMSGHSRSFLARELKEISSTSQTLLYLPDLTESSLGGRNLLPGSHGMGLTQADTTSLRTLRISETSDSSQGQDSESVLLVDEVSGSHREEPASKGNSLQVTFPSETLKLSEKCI
Experimental: as §1, §2

[3] = test system: mouse colon cancer cells CT26; assay: CT26 subcutaneous tumor-bearing model, Balb/c mice; assay type: in vivo; conditions: female Balb/c mice, 75 mg/kg/day, 14 days, vs negative control, FIG. 3
Experimental: 2×10^6 mouse colon cancer cells CT26 were subcutaneously injected into right side of each mouse's back (female Balb/c mouse, 6-8 weeks). The length and width of subcutaneous tumors in the back of mice were measured using vernier calipers, and tumor volume (mm^3)=(length(mm)×width(mm)×width(mm)×n)/6 was calculated. […] The volume of subcutaneous tumors on the back of mice was measured and counted twice a week. Continuous administrated for a period of 14 days and the changes of tumor volumes were recorded.
Mouse colon cancer cells MC38, pancreatic cancer cells Pan02, breast cancer cells 4T1, prostate cancer cells RM-1 and colon cancer cells CT26 were cultivated to required amount. Then, cells at a cell density of 5×10^5-2×10^6 were subcutaneously injected into right side of the back of selected female C57BL/6 mice aging 6-8 weeks (MC38, Pan02), male C57BL/6 mice aging 6-8 weeks (RM-1), female Balb/c mice aging 6-8 weeks (4T1, CT26) and female Balb/c nude mice aging 6-8 weeks (CT26). The length and width of subcutaneous tumors in the backs of mice were measured using vernier calipers, and tumor volume(mm^3)=(length(mm)×width(mm)×width(mm)×n)/6 was calculated. […] The volume of subcutaneous tumors on the back of mice was measured and counted 2-4 times a week. Continuous administrated for 12-22 days and the changes of tumor volumes were recorded.

[4] = Cytotoxicity evaluation (CCK8), LLC; conditions: mouse, LLC lung cancer cells
Experimental: (§5) Cells with a density of 2000-8000 cells per 100 μL medium were seeded in 96-well plates (Falcon, CA) and incubated for 24 hours, then treated with drugs having different concentration gradient (at least 4 replicates per concentration) and incubated at 37° C. in 5% CO2 incubator for 72 hours. Then cell viability was detected by CCK8 method. That is to say, add 10 μL CCK8 to each well and incubate for 0.33-2 h, and the OD values are read by microplate reader at 450 nm. The inhibition rate on cell survival of compounds with each concentration were calculated.
(§6) Inhibition rate on cell survival=(OD value of groups with each concentration/OD
(§7) value of control group)×100%±standard deviation.
(§8) The IC50 of drugs were calculated using GraphPad Prism 5.0.

[5] = Cytotoxicity evaluation (CCK8), 293; conditions: human
[6] = Cytotoxicity evaluation (CCK8), MOSJ; conditions: mouse, MOSJ osteosarcoma cells
Experimental: as §5, §6, §7, §8

[7] = Cytotoxicity evaluation (CCK8), CT26; conditions: mouse, CT26 intestinal cancer cells
Experimental: as §5, §6, §7, §8

[8] = Cytotoxicity evaluation (CCK8), EMT-6; conditions: mouse, EMT-6 breast cancer cells
Experimental: as §5, §6, §7, §8

[9] = Cytotoxicity evaluation (CCK8), PANC02; conditions: mouse, PANC02 pancreatic cancer cells
Experimental: as §5, §6, §7, §8

[10] = biological target: T3, human prostaglandin E2 receptor EP1 subtype (Homo sapiens, UniProt P34995); assay: Calcium flux of human prostaglandin E2 receptor EP1 subtype; assay type: cell-based; conditions: CHO-K1-Gα16 cells overexpressing human EP1, activated by prostaglandin E2; read-out: hEP1 Ca^2+ IC50
T3 construct: expressed in transfected cells; host or cells: CHO-K1-Gα16
T3 sequence (P34995 1-402): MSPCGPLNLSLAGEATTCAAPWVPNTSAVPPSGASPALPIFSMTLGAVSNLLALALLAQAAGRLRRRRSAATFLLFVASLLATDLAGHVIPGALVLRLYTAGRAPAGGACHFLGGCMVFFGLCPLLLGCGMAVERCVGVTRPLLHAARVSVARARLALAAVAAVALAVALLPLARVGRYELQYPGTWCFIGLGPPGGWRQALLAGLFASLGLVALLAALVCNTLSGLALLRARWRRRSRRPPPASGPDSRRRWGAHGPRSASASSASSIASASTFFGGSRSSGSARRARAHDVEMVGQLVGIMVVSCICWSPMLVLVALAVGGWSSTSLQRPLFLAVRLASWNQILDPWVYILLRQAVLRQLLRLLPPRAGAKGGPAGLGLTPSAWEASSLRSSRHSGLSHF
Experimental: (§3) CHO-K1-Gα16 cells at the logarithmic growth phase were transfected with human prostaglandin E2 Receptor subtypes EP1, EP2 or EP3 overexpressing vector by Lipofectamine 2000, then seeded in a 96-well plate (Falcon, CA) at a density of 20000 cells per 100 μL culture medium for overnight culture. On the second day, every single well were added with 100 μL calcium 5 detection reagents (Molecular Devices) and incubated in incubator at 37° C., 5% CO2 for 45 minutes. The compounds were diluted with HBSS detection buffer, then were added to 96-well plates. After 20 min incubation at room temperature in the dark, prostaglandin E2 at certain concentration was used to activate calcium flux of cells for detection (Flexstation 3, MD, CA).
(§4) Calculate the IC50 of the compounds of the invention in inhibiting the calcium flux of human EP1, EP2, and EP3 receptor (i.e. the concentration of drugs at which the intracellular Ca^2+ flux being inhibited by half after overexpressing human EP1, EP2, and EP3 receptors in CHO-K1-Gα16 cells). The IC50 of the drugs were calculated using GraphPad Prism 5.

[11] = biological target: T4, human prostaglandin E2 receptor EP2 subtype (Homo sapiens, UniProt P43116); assay: Calcium flux of human prostaglandin E2 receptor EP2 subtype; assay type: cell-based; conditions: CHO-K1-Gα16 cells overexpressing human EP2, activated by prostaglandin E2; read-out: hEP2 Ca^2+ IC50
T4 construct: expressed in transfected cells; host or cells: CHO-K1-Gα16
T4 sequence (P43116 whole entry): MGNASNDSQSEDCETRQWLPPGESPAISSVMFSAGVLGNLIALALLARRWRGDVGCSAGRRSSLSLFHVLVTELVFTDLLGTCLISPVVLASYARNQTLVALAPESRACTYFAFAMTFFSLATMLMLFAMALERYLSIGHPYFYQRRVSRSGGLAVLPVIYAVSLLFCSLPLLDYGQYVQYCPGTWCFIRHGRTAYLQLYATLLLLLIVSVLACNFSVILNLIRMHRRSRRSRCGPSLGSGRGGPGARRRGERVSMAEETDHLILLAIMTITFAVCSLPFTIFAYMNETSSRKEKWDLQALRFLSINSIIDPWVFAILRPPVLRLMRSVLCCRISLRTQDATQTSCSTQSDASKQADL
Experimental: as §3, §4

[12] = biological target: T5, human prostaglandin E2 receptor EP3 subtype (Homo sapiens, UniProt P43115); assay: Calcium flux of human prostaglandin E2 receptor EP3 subtype; assay type: cell-based; conditions: CHO-K1-Gα16 cells overexpressing human EP3, activated by prostaglandin E2; read-out: hEP3 Ca^2+ IC50
T5 construct: expressed in transfected cells; host or cells: CHO-K1-Gα16
T5 sequence (P43115 1-390): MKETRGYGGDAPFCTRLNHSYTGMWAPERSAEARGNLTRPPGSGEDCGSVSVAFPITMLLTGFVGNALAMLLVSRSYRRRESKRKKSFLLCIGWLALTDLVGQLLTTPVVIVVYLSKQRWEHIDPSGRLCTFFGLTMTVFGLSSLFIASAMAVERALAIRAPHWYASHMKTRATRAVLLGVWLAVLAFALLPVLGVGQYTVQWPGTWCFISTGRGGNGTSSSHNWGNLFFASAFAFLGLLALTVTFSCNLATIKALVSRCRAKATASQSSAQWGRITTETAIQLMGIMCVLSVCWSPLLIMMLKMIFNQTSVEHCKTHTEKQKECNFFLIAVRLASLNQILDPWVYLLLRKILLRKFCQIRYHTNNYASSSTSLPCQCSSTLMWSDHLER
Experimental: as §3, §4

[13] = test system: mouse models of colon cancer, breast cancer, pancreatic cancer and sarcoma; conditions: Oncoimmunology 2017; cited from earlier work

| pIC50 [1] | pIC50 [10] | pIC50 [11] | pIC50 [12] | Structure (SMILES) | pIC50 [2] | Inhibitory effect on growth of subcutaneous CT26 colon cancer [3] | IC50 at 72 h [4] [µM] | IC50 at 72 h [5] [µM] | IC50 at 72 h [6] [µM] | IC50 at 72 h [7] [µM] | IC50 at 72 h [8] [µM] | IC50 at 72 h [9] [µM] | Inhibitory effects in mouse tumor models [13] |
| --- | --- | --- | --- | --- | --- | --- | --- | --- | --- | --- | --- | --- | --- |
| > 7.00 | – | – | – | C[C@H](NC(=O)c1c(CCc2ccc(F)cc2)sc2c1CCOC2)c1ccc(C(=O)O)cc1 [YJ106, (S)-4-(1-(2-(4-fluorophenethyl)-4,7-dihydro-5H-thieno[2,3-c]pyran-3-carboxamido)ethyl)benzoic Acid] | > 7.00 | able to suppress the growth | > 100 | > 100 | > 100 | > 100 | > 100 | > 100 | – |
| – | – | – | – | O=C(O)c1ccc(CNC(=O)c2c(Cc3ccc(F)cc3)sc3c2CCOC3)cc1 [YJ120, 4-((2-(4-fluorobenzyl)-4,7-dihydro-5H-thieno[2,3-c]pyran-3-carboxamido)methyl)benzoic Acid] | > 7.00 | able to suppress the growth | > 100 | > 100 | > 100 | > 100 | > 100 | > 100 | – |
| > 7.00 | < 5.00 | < 5.00 | < 5.00 | C[C@H](NC(=O)c1c(CCc2cccc(C(F)(F)F)c2)sc2c1CCOC2)c1ccc(C(=O)O)cc1 [YJ112, (S)-4-(1-(2-(3-(trifluoromethyl)phenethyl)-5,7-dihydro-4H-thieno[2,3-c]pyran-3-carboxamido)ethyl)benzoic Acid] | 6.00 to 7.00 | – | > 100 | > 100 | > 100 | > 100 | > 100 | > 100 | – |
| – | – | – | – | C[C@H](NC(=O)c1c(C(F)F)nn(C)c1Oc1cccc(C(F)(F)F)c1)c1ccc(C(=O)O)cc1 [Compound E7046, reference compound] | – | comparable with that of E7046 | – | – | – | – | – | – | good inhibitory effects |
| > 7.00 | < 5.00 | < 5.00 | < 5.00 | C[C@H](NC(=O)c1c(C#Cc2ccc(F)cc2)sc2c1CCCCC2)c1ccc(C(=O)O)cc1 [YJ104, (S)-4-(1-(2-((4-fluorophenyl)ethynyl)-5,6,7,8-tetrahydro-4H-cyclohepta[b]thiophene-3-carboxamido)ethyl)benzoic Acid] | 6.00 to 7.00 | – | > 100 | > 100 | > 100 | > 100 | > 100 | > 100 | – |

| Structure (SMILES) | pIC50 [1] | pIC50 [10] | pIC50 [11] | pIC50 [12] | pIC50 [2] | Inhibitory effect on growth of subcutaneous CT26 colon cancer [3] | IC50 at 72 h [4] [µM] | IC50 at 72 h [5] [µM] | IC50 at 72 h [6] [µM] | IC50 at 72 h [7] [µM] | IC50 at 72 h [8] [µM] | IC50 at 72 h [9] [µM] | Inhibitory effects in mouse tumor models [13] |
| --- | --- | --- | --- | --- | --- | --- | --- | --- | --- | --- | --- | --- | --- |
| C[C@H](NC(=O)c1c(Cc2ccc(C(F)(F)F)cc2)sc2c1CCOC2)c1ccc(C(=O)O)cc1 [YJ115, (S)-4-(1-(2-(4-(trifluoromethyl)benzyl)-5,7-dihydro-4H-thieno[2,3-c]pyran-3-carboxamido)ethyl)benzoic Acid] | > 7.00 | – | – | – | > 7.00 | able to suppress the growth | > 100 | > 100 | > 100 | > 100 | > 100 | > 100 | – |
| C[C@H](NC(=O)c1c(Cc2cccc(C(F)(F)F)c2)sc2c1CCOC2)c1ccc(C(=O)O)cc1 [YJ116, (S)-4-(1-(2-(3-(trifluoromethyl)benzyl)-5,7-dihydro-4H-thieno[2,3-c]pyran-3-carboxamido)ethyl)benzoic Acid] | > 7.00 | < 5.00 | < 5.00 | < 5.00 | > 7.00 | able to suppress the growth | > 100 | > 100 | > 100 | > 100 | > 100 | > 100 | – |
